Results: PMC6242839 (Nature Communications, 2018)
Converted amounts (≈) assume the structure as drawn. Where two headings read alike, the source gives them in different places.

Key:
[1] = tested on: B. anthracis Sterne strain; experiment: microbe, parasite or virus in culture; format: cell-based; conditions: Bacillus anthracis; 16 h at 37 °C; read-out: MIC B. anthracis Sterne
[2] = tested on: B. anthracis pathogenic strain (human isolate); experiment: microbe, parasite or virus in culture; format: cell-based; conditions: Bacillus anthracis; 16 h at 37 °C; read-out: MIC B. anthracis Pathogenic
[3] = tested on: B. anthracis ovine strain (animal isolate); experiment: microbe, parasite or virus in culture; format: cell-based; conditions: Bacillus anthracis; 16 h at 37 °C; read-out: MIC B. anthracis Ovine
E. faecalis (ATCC 29212) = experiment: microbe, parasite or virus in culture; format: cell-based; conditions: Enterococcus faecalis, ATCC29212; 16 h at 37 °C; read-out: MIC E. faecalis
B. cereus (ATCC 10876) = experiment: microbe, parasite or virus in culture; format: cell-based; conditions: Bacillus cereus, ATCC10876; 16 h at 37 °C; read-out: MIC B. cereus
[4] = tested on: B. cereus ATCC 14579 strains resistant to known antibiotics; experiment: microbe, parasite or virus in culture; format: cell-based, Bacillus cereus
[5] = tested on: Bacillus cereus ATCC 14579; conditions: cited from earlier work
in vitro = conditions: human
B. cereus ATCC 14579 = experiment: microbe, parasite or virus in culture; format: cell-based, Bacillus cereus; conditions: Bacillus cereus, ATCC14579
[6] = POPE LUVs, compound 50 µM
[7] = POPC LUVs, compound 50 µM
E. coli K12 spheroplasts = experiment: microbe, parasite or virus in culture; format: cell-based, Escherichia coli
[8] = tested on: S. aureus ATCC 29213 protoplasts; experiment: microbe, parasite or virus in culture; format: cell-based, Staphylococcus aureus

Compound | MIC [1] [µM] | MIC [2] [µM] | MIC [3] [µM] | MIC (E. faecalis (ATCC 29212)) [µM] | MIC (B. cereus (ATCC 10876)) [µM] | MIC [5] [mg/mL] | IC50 at 48 h (in vitro) [µM] | also measured
CCCCCCCCCCCCO[C@H]1O[C@H](C)[C@@H](O)[C@H](O)[C@@H]1O [Compound 16] | 24 (≈ 7.98 µg/mL) | 24 (≈ 7.98 µg/mL) | > 48 | > 48 | 48 (≈ 16 µg/mL) | – | – | –
CN[C@H](CC(C)C)C(=O)N[C@H]1C(=O)N[C@@H](CC(N)=O)C(=O)N[C@H]2C(=O)N[C@H]3C(=O)N[C@H](C(=O)N[C@H](C(=O)O)c4cc(O)cc(O)c4-c4cc3ccc4O)[C@H](O)c3ccc(c(Cl)c3)Oc3cc2cc(c3O[C@@H]2O[C@H](CO)[C@@H](O)[C@H](O)[C@H]2O[C@H]2C[C@](C)(N)[C@H](O)[C@H](C)O2)Oc2ccc(cc2Cl)[C@H]1O [Vancomycin] | – | – | – | – | – | 0.00018 (≈ 0.124 µM) | – | MIC of the antibiotic [4]: 0.005 mg/mL
NC[C@H]1O[C@H](O[C@H]2[C@H](O)[C@@H](O[C@H]3O[C@H](CO)[C@@H](O)[C@H](N)[C@H]3O)[C@H](N)C[C@@H]2N)[C@H](O)[C@@H](O)[C@@H]1O [Kanamycin] | – | – | – | – | – | 0.015 (≈ 31 µM) | – | –
O=C(N[C@H](CO)[C@H](O)c1ccc([N+](=O)[O-])cc1)C(Cl)Cl [Chloramphenicol, reference compound] | 25 (≈ 8.08 µg/mL) | 25 (≈ 8.08 µg/mL) | 25 (≈ 8.08 µg/mL) | 19 (≈ 6.14 µg/mL) | 19 (≈ 6.14 µg/mL) | 0.0025 (≈ 7.74 µM) | – | –
CCCCCCCCCCCCO[C@@H]1C[C@@H](O)[C@H](O)[C@@H](C)O1 [Compound 9] | 50 (≈ 15.8 µg/mL) | 50 (≈ 15.8 µg/mL) | 50 (≈ 15.8 µg/mL) | 50 (≈ 15.8 µg/mL) | 25 (≈ 7.91 µg/mL) | – | 50 | IC50 at 24 h (in vitro): 100 µM
CCCCCCCCCCCCO[C@@H]1C[C@@H](O)[C@H](O)[C@@H](CO)O1 [Compound 13] | 386 (≈ 128 µg/mL) | 12 (≈ 3.99 µg/mL) | 12 (≈ 3.99 µg/mL) | 12 (≈ 3.99 µg/mL) | 386 (≈ 128 µg/mL) | – | > 50 | MBC (B. cereus ATCC 14579): 0.128 mg/mL (≈ 385 µM); MIC (B. cereus ATCC 14579): 0.128 mg/mL (≈ 385 µM); time of leakage, τL [6]: about 326 min; leakage of encapsulated carboxyfluorescein ([6]; course of the experiment (14 h)): ~ 10%; time of leakage, τL [7]: ~256 min; IC50 at 24 h (in vitro): 100 µM
CN(C)[C@@H]1C(O)=C(C(N)=O)C(=O)[C@@]2(O)C(O)=C3C(=O)c4c(O)cccc4[C@@](C)(O)[C@H]3C[C@@H]12 [Tetracycline] | – | – | – | – | – | 0.0025 (≈ 5.63 µM) | – | MIC of the antibiotic [4]: 0.05 mg/mL
CC[C@H]1OC(=O)[C@H](C)[C@@H](O[C@H]2C[C@@](C)(OC)[C@@H](O)[C@H](C)O2)[C@H](C)[C@@H](O[C@@H]2O[C@H](C)C[C@H](N(C)C)[C@H]2O)[C@](C)(O)C[C@@H](C)C(=O)[C@H](C)[C@@H](O)[C@]1(C)O [Erythromycin] | – | – | – | – | – | 0.008 (≈ 10.9 µM) | – | MIC of the antibiotic [4]: 0.02 mg/mL
Penicillin | – | – | – | – | – | – | – | MIC of the antibiotic [4]: 0.02 mg/mL
CCCCCCCCCCCCO[C@H]1C[C@H](O)[C@H](O)[C@H](C)O1 [Compound 4] | 25 (≈ 7.91 µg/mL) | 25 (≈ 7.91 µg/mL) | 25 (≈ 7.91 µg/mL) | > 50 | 25 (≈ 7.91 µg/mL) | – | 50 | IC50 at 24 h (in vitro): 100 µM
CCCCCCCCCCCC[C@@H]1C[C@@H](O)[C@H](O)[C@@H](C)O1 [Compound 10, 1-(2,6-Dideoxy-α-D-arabino-hexopyranosyl)dodecane] | 27 (≈ 8.11 µg/mL) | 27 (≈ 8.11 µg/mL) | 27 (≈ 8.11 µg/mL) | > 54 | 27 (≈ 8.11 µg/mL) | – | > 100 | MBC (B. cereus ATCC 14579): 0.032 mg/mL (≈ 106 µM); MIC (B. cereus ATCC 14579): 0.032 mg/mL (≈ 106 µM); IC50 at 24 h (in vitro): > 100 µM
CCCCCCCCCCCCS[C@H]1C[C@@H](O)[C@H](O)CO1 [Compound 20] | 25 (≈ 7.96 µg/mL) | 50 (≈ 15.9 µg/mL) | 50 (≈ 15.9 µg/mL) | > 50 | 50 (≈ 15.9 µg/mL) | – | – | MBC (B. cereus ATCC 14579): 0.032 mg/mL (≈ 100 µM); MIC (B. cereus ATCC 14579): 0.032 mg/mL (≈ 100 µM)
CCCCCCCCCCCC[C@H]1C[C@H](O)[C@@H](O)[C@H](C)O1 [Compound 3] | 27 (≈ 8.11 µg/mL) | 54 (≈ 16.2 µg/mL) | 54 (≈ 16.2 µg/mL) | > 54 | 27 (≈ 8.11 µg/mL) | – | 100 | IC50 at 24 h (in vitro): > 100 µM
CCn1cc(C(=O)O)c(=O)c2cc(F)c(N3CCNCC3)cc21 [Norfloxacin] | – | – | – | – | – | 0.00125 (≈ 3.91 µM) | – | –
Colistin | – | – | – | – | – | > 5 | – | –
Polymyxin B [reference compound] | – | – | – | – | – | 0.781 | – | MIC (E. coli K12 spheroplasts): > 1000 mg/mL; MIC [8]: > 1000 mg/mL
CCCCCCCCCCCCO[C@@H]1O[C@H](C)C[C@H](O)[C@H]1O [Compound 12] | > 405 | > 405 | > 405 | > 405 | > 405 | – | 50 | –
